The values below come from PubChem BioAssay AID248 (DTP/NCI, 2004).

In the test the test system is L1210 leukemia ip in BDF1 mice, survival T/C. The test is described as follows: NCI In Vivo Anticancer Drug Screen. Data for tumor model L1210 Leukemia (intraperitoneal) in B6D2F1 (BDF1) mice. Particulars: endpoint: mean survival time, higher = longer survival. A digest of the protocol: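 Antitumor effect is assessed in tumor-bearing animals. Survival in the compound arm is compared with a vehicle-dosed control arm and expressed as their quotient.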

The mark [1] stands for this setting: dose: 100.0 mg/kg/injection, schedule: Q01DX001 (ip), vehicle: saline.
[2] abbreviates: dose: 200.0 mg/kg/injection, schedule: Q01DX001 (ip), vehicle: saline.
The mark [3] stands for this setting: dose: 400.0 mg/kg/injection, schedule: Q01DX001 (ip), vehicle: saline.
Setting [4] is: dose: 100.0 mg/kg/injection, schedule: Q04DX002 (ip), vehicle: Klucel (hydroxypropylcellulose) (HPC).
Setting [5] is: dose: 100.0 mg/kg/injection, schedule: Q04DX003 (ip), vehicle: saline with Tween-80.
Where [6] appears, read: dose: 50.0 mg/kg/injection, schedule: Q04DX003 (ip), vehicle: saline with Tween-80.

Where “and” joins values, the source holds several entries; their conditions need not be identical. Identical values can stand only once. Toxic doses and inconclusive results are not listed.

`O=C(Nc1ccc(C2=NCCN2)cc1)c1ccc(C(=O)Nc2ccc(C3=NCCN3)cc2)nc1`: the T/C runs as follows: (dose: 1.0 mg/kg/injection, schedule: Q01DX Z (ip), vehicle: saline) 108 % of control; (dose: 2.0 mg/kg/injection, schedule: Q01DX Z (ip), vehicle: saline) 119 % of control; (dose: 15.0 mg/kg/injection, schedule: Q01DX Z (ip), vehicle: carboxymethylcellulose (CMC)) 228 % of control; (dose: 16.0 mg/kg/injection, schedule: Q01DX Z (ip), vehicle: saline) 221 % of control; (dose: 30.0 mg/kg/injection, schedule: Q01DX Z (oral), vehicle: saline) 104 % of control; (dose: 60.0 mg/kg/injection, schedule: Q01DX Z (ip), vehicle: carboxymethylcellulose (CMC)) 117 % of control. The T/C is, setting by setting: (dose: 60.0 mg/kg/injection, schedule: Q01DX Z (oral), vehicle: saline) 98 % of control; (dose: 120.0 mg/kg/injection, schedule: Q01DX Z (oral), vehicle: saline) 106 % of control; (dose: 240.0 mg/kg/injection, schedule: Q01DX Z (oral), vehicle: saline) 97 % of control; (dose: 480.0 mg/kg/injection, schedule: Q01DX Z (oral), vehicle: saline) 98 % of control; (dose: 960.0 mg/kg/injection, schedule: Q01DX Z (oral), vehicle: saline) 97 % of control.
Consider `O=C(O)/C=C/C(=O)Nc1ccc2c(c1)Cc1cc(NC(=O)C(F)(F)F)ccc1-2`, for which the T/C runs as follows: (dose: 25.0 mg/kg/injection, schedule: Q01DX009 (ip), vehicle: saline) 105 % of control; (dose: 25.0 mg/kg/injection, schedule: Q04DX003 (ip), vehicle: saline) 102 % of control; (dose: 50.0 mg/kg/injection, schedule: Q01DX009 (ip), vehicle: saline) 101 % of control; (dose: 50.0 mg/kg/injection, schedule: Q04DX003 (ip), vehicle: saline) 96 % of control; under setting [1], 90 % of control; (dose: 100.0 mg/kg/injection, schedule: Q01DX009 (ip), vehicle: saline) 100 % of control. The T/C is, setting by setting: (dose: 100.0 mg/kg/injection, schedule: Q04DX003 (ip), vehicle: saline) 98 % of control; under setting [2], 90 % of control.
As to `CC(C)(C)CC(C)(C)N(CSc1ccc([N+](=O)[O-])cc1)CSc1ccc([N+](=O)[O-])cc1`, the T/C under setting [1] was 102 % of control, the T/C under setting [2] is 94 % of control and the T/C under setting [3] was 94 % of control.
Take `O=S1(=O)CCC(N(/N=C/c2c[nH]c3ccccc23)c2ccccc2)C1` (stereo not drawn): the T/C runs as follows: under setting [4], 103 % of control; (dose: 200.0 mg/kg/injection, schedule: Q04DX002 (ip), vehicle: Klucel (hydroxypropylcellulose) (HPC)) 110 % of control; (dose: 400.0 mg/kg/injection, schedule: Q04DX002 (ip), vehicle: Klucel (hydroxypropylcellulose) (HPC)) 100 % of control.
Regarding `O=C(/C=C(\c1ccccc1)c1ccc([N+](=O)[O-])cc1)Nc1ccc(S(=O)(=O)F)cc1`, the T/C under setting [5] is 96 % of control; the T/C (dose: 200.0 mg/kg/injection, schedule: Q04DX003 (ip), vehicle: saline with Tween-80) is 91 % of control; the T/C (dose: 400.0 mg/kg/injection, schedule: Q04DX003 (ip), vehicle: saline with Tween-80) is 96 % of control.
`CCOC(=O)CC1=NCCc2cc(OC)c(OC)cc21`: the T/C runs as follows: (dose: 25.0 mg/kg/injection, schedule: Q04DX002 (ip), vehicle: Klucel (hydroxypropylcellulose) (HPC)) 102 % of control; (dose: 50.0 mg/kg/injection, schedule: Q04DX002 (ip), vehicle: Klucel (hydroxypropylcellulose) (HPC)) 99 % of control; under setting [4], 96 % of control.
Regarding `COc1cccc(C(=O)C=C(C(F)(F)F)C(F)(F)F)c1`, the T/C by setting is: (dose: 25.0 mg/kg/injection, schedule: Q04DX003 (ip), vehicle: saline with Tween-80) 95 % of control; under setting [6], 97 % of control; under setting [5], 94 % of control.
Regarding `CCCCCCCC(=O)N(CC(C)C)CC(C)C`, the T/C was 102 % of control (dose: 100.0 mg/kg/injection, schedule: Q01DX001 (ip), vehicle: carboxymethylcellulose (CMC)); 97 % of control (dose: 100.0 mg/kg/injection, schedule: Q01DX009 (ip), vehicle: carboxymethylcellulose (CMC)); 101 % of control and 102 % of control (dose: 100.0 mg/kg/injection, schedule: Q04DX002 (ip), vehicle: carboxymethylcellulose (CMC)); 97 % of control (dose: 100.0 mg/kg/injection, schedule: Q04DX003 (ip), vehicle: carboxymethylcellulose (CMC)); 96 % of control (dose: 200.0 mg/kg/injection, schedule: Q01DX001 (ip), vehicle: carboxymethylcellulose (CMC)); 93 % of control and 98 % of control (dose: 200.0 mg/kg/injection, schedule: Q01DX009 (ip), vehicle: carboxymethylcellulose (CMC)). For the same compound, the T/C is 97 % of control and 102 % of control (dose: 200.0 mg/kg/injection, schedule: Q04DX002 (ip), vehicle: carboxymethylcellulose (CMC)); 97 % of control (dose: 200.0 mg/kg/injection, schedule: Q04DX003 (ip), vehicle: carboxymethylcellulose (CMC)); 91 % of control (dose: 400.0 mg/kg/injection, schedule: Q01DX001 (ip), vehicle: carboxymethylcellulose (CMC)); 94 % of control (dose: 400.0 mg/kg/injection, schedule: Q04DX002 (ip), vehicle: carboxymethylcellulose (CMC)); 90 % of control (dose: 400.0 mg/kg/injection, schedule: Q04DX003 (ip), vehicle: carboxymethylcellulose (CMC)).
On to `CC(O)c1cccc([N+](=O)[O-])c1` (stereo not drawn), for which the T/C was 104 % of control (dose: 100.0 mg/kg/injection, schedule: Q01DX009 (ip), vehicle: saline with Tween-80); 94 % of control (dose: 200.0 mg/kg/injection, schedule: Q01DX009 (ip), vehicle: saline with Tween-80); 90 % of control (dose: 400.0 mg/kg/injection, schedule: Q01DX009 (ip), vehicle: saline with Tween-80).
For the compound `Cn1ncc2ccccc21`, the T/C runs as follows: (dose: 62.5 mg/kg/injection, schedule: Q01DX009 (ip), vehicle: other) 101 % of control; (dose: 125.0 mg/kg/injection, schedule: Q01DX009 (ip), vehicle: other) 102 % of control; (dose: 250.0 mg/kg/injection, schedule: Q01DX009 (ip), vehicle: other) 93 % of control.
On to `O=C(NC(=S)Nc1ccc(F)cc1)c1cccc([N+](=O)[O-])c1`, for which the T/C by setting is: (dose: 12.5 mg/kg/injection, schedule: Q01DX009 (ip), vehicle: saline with Tween-80) 97 % of control and 98 % of control; (dose: 25.0 mg/kg/injection, schedule: Q01DX009 (ip), vehicle: saline with Tween-80) 94 % of control and 97 % of control; under setting [6], 100 % of control; (dose: 100.0 mg/kg/injection, schedule: Q01DX001 (ip), vehicle: saline with Tween-80) 97 % of control; (dose: 100.0 mg/kg/injection, schedule: Q04DX002 (ip), vehicle: saline with Tween-80) 101 % of control; under setting [5], 97 % of control. The T/C by setting is: (dose: 200.0 mg/kg/injection, schedule: Q01DX001 (ip), vehicle: saline with Tween-80) 95 % of control; (dose: 200.0 mg/kg/injection, schedule: Q04DX002 (ip), vehicle: saline with Tween-80) 93 % of control and 97 % of control.
For `CC1OC(n2cnc3c(=S)nc[nH]c32)C(O)C1O` (stereo not drawn), the T/C (dose: 50.0 mg/kg/injection, schedule: Q01DX001 (ip), vehicle: saline) is 93 % of control; the T/C under setting [1] was 96 % of control; the T/C under setting [2] is 102 % of control; the T/C under setting [3] was 93 % of control.
As for `CCOC(=O)N1C(C)C1C(C)C` (stereo not drawn), the T/C is, setting by setting: (dose: 62.0 mg/kg/injection, schedule: Q04DX003 (ip), vehicle: carboxymethylcellulose (CMC)) 97 % of control; (dose: 125.0 mg/kg/injection, schedule: Q04DX003 (ip), vehicle: carboxymethylcellulose (CMC)) 97 % of control; (dose: 250.0 mg/kg/injection, schedule: Q04DX003 (ip), vehicle: carboxymethylcellulose (CMC)) 94 % of control.
As for `CCN(CC)CCCNC(c1ccc(OC)c(OC)c1)C(Cl)(Cl)Cl` (stereo not drawn), the T/C by setting is: (dose: 75.0 mg/kg/injection, schedule: Q01DX001 (ip), vehicle: saline) 98 % of control; (dose: 150.0 mg/kg/injection, schedule: Q01DX001 (ip), vehicle: saline) 91 % of control.
In the case of `Cc1c(C#N)oc2c(Cl)cc(Cl)cc12`, the T/C runs as follows: (dose: 100.0 mg/kg/injection, schedule: Q01DX009 (ip), vehicle: Klucel (hydroxypropylcellulose) (HPC)) 99 % of control; (dose: 100.0 mg/kg/injection, schedule: Q04DX003 (ip), vehicle: Klucel (hydroxypropylcellulose) (HPC)) 100 % of control; (dose: 200.0 mg/kg/injection, schedule: Q01DX009 (ip), vehicle: Klucel (hydroxypropylcellulose) (HPC)) 99 % of control; (dose: 200.0 mg/kg/injection, schedule: Q04DX003 (ip), vehicle: Klucel (hydroxypropylcellulose) (HPC)) 100 % of control; (dose: 400.0 mg/kg/injection, schedule: Q04DX003 (ip), vehicle: Klucel (hydroxypropylcellulose) (HPC)) 101 % of control.
